In patent publication US8450266B2 (Ipsen Pharma S.A.S., priority 2008, dated 2013):
Where a SMILES comes first, the peptide text is derived from it. [ ]: non-standard residue; d: D form. The star is where a group is joined. X2 = CCCCCCN1C(=O)CC(*)C1=O; Decanoyl = CCCCCCCCCC(=O)*; Ac6c = NC1(C(=O)O)CCCCC1; Orn = NCCC[C@H](N)C(=O)O; X1 = CCCN1C(=O)CC(*)C1=O

Key:
[1] = Human plasma half-life assay (LC-MS); format: in vitro ADME; details: incubated at 37° C., read-out: Human Plasma T½ (converted)
Description: (§1) B. Human and Rat Plasma Half-Life Assay
(§2) 50 μl, was removed at various times, like at 0, 1, 2, 3, 4, 8, 24, 32, 48, 56, 72 hours, mixed with 5 μL formic acid and 150 μL acetonitrile in a microcentrifuge tube, vertexed, and centrifuged for 10 minutes at 10K rpm. The supernatant was transferred to an injection vial and analyzed by LC-MS. The LC-MS system consisted of an API4000 mass spectrometer with an ESI probe. Positive ion mode and full scan detection were used. HPLC separation was carried out on a Luna 3μ C8 (2), 2×30 mm column with a gradient from 90% A to 90% B in 10 minutes at a flow rate of 0.3 ml/min. Buffer A was 1% formic acid in water and buffer B was 1% formic acid acetonitrile.

[2] = Rat plasma half-life assay (LC-MS); format: in vitro ADME; details: incubated at 37° C., read-out: Rat Plasma T½ (converted)
Description: as §1, §2

Row | Structure (SMILES) | half-life at 0.1 mg/ml [1] [h] | half-life at 0.1 mg/ml [2] [h] | half-life at 0.1 mg/mL [1] [h] | half-life at 0.1 mg/mL [2] [h]
1 | CCCCCCCCCC(=O)NCCC[C@H](NC(=O)[C@H](CCCCN)NC(=O)[C@H](CCC(N)=O)NC(=O)[C@H](C)NC(=O)[C@H](CC(C)C)NC(=O)[C@H](CC(C)C)NC(=O)[C@H](Cc1c[nH]c2ccccc12)NC(=O)[C@H](CC(N)=O)NC(=O)[C@@H](NC(=O)[C@H](Cc1ccccc1)NC(=O)[C@H](CC(=O)O)NC(=O)[C@H](CCC(N)=O)NC(=O)[C@H](CCC(N)=O)NC(=O)[C@H](Cc1c[nH]cn1)NC(=O)[C@@H](NC(=O)[C@H](CCCCN)NC(=O)[C@H](CC(=O)O)NC(=O)[C@H](CCSC)NC(=O)[C@H](C)NC(=O)[C@@H](NC(=O)[C@H](CO)NC(=O)[C@H](Cc1ccc(O)cc1)NC(=O)[C@H](CC(=O)O)NC(=O)[C@H](CO)NC(=O)C1(N)CCCCC1)[C@@H](C)CC)[C@@H](C)CC)C(C)C)C(=O)N[C@@H](CCCCN)C(=O)N[C@@H](CCCCN)C(=O)N[C@@H](CC(N)=O)C(=O)N[C@@H](CC(=O)O)C(=O)N[C@@H](Cc1c[nH]c2ccccc12)C(=O)N[C@@H](CCCCN)C(=O)N[C@@H](Cc1c[nH]cn1)C(=O)N[C@@H](CC(N)=O)C(=O)N[C@H](C(=O)N[C@H](C(=O)N[C@@H](CCC(N)=O)C(=O)O)[C@@H](C)O)[C@@H](C)CC [Example 14, [A6c^7, Orn^31(N-C(O)-(CH2)8-CH3)]hGIP(7-42)-OH] (H-[Ac6c]SDYSIAMDKIHQQDFVNWLLAQK[Orn](Decanoyl)KKNDWKHNITQ-OH) | 4.1 | 15.3 | – | –
2 | CCCCCCCCCC(=O)NCCC[C@H](NC(=O)[C@H](CCCCN)NC(=O)[C@H](CCCCN)NC(=O)CNC(=O)[C@H](CCCCN)NC(=O)[C@H](CCC(N)=O)NC(=O)[C@H](C)NC(=O)[C@H](CC(C)C)NC(=O)[C@H](CC(C)C)NC(=O)[C@H](Cc1c[nH]c2ccccc12)NC(=O)[C@H](CC(N)=O)NC(=O)[C@@H](NC(=O)[C@H](Cc1ccccc1)NC(=O)[C@H](CC(=O)O)NC(=O)[C@H](CCC(N)=O)NC(=O)[C@H](CCC(N)=O)NC(=O)[C@H](Cc1c[nH]cn1)NC(=O)[C@@H](NC(=O)[C@H](CCCCN)NC(=O)[C@H](CC(=O)O)NC(=O)[C@H](CCSC)NC(=O)[C@H](C)NC(=O)[C@@H](NC(=O)[C@H](CO)NC(=O)[C@H](Cc1ccc(O)cc1)NC(=O)[C@H](CC(=O)O)NC(=O)[C@H](CO)NC(=O)C1(N)CCCCC1)[C@@H](C)CC)[C@@H](C)CC)C(C)C)C(=O)N[C@@H](CC(=O)O)C(=O)N[C@@H](Cc1c[nH]c2ccccc12)C(=O)N[C@@H](CCCCN)C(=O)N[C@@H](Cc1c[nH]cn1)C(=O)N[C@@H](CC(N)=O)C(=O)N[C@H](C(=O)N[C@H](C(=O)N[C@@H](CCC(N)=O)C(=O)O)[C@@H](C)O)[C@@H](C)CC [Example 20, [A6c^7, Orn^34(N-C(O)-(CH2)8-CH3)]hGIP(7-42)-OH] (H-[Ac6c]SDYSIAMDKIHQQDFVNWLLAQKGKK[Orn](Decanoyl)DWKHNITQ-OH) | – | – | 9.4 | 13.9
3 | CCCN1C(=O)CC(SC[C@H](NC(=O)[C@H](CCCCN)NC(=O)[C@H](CCC(N)=O)NC(=O)[C@H](C)NC(=O)[C@H](CC(C)C)NC(=O)[C@H](CC(C)C)NC(=O)[C@H](Cc2c[nH]c3ccccc23)NC(=O)[C@H](CC(N)=O)NC(=O)[C@@H](NC(=O)[C@H](Cc2ccccc2)NC(=O)[C@H](CC(=O)O)NC(=O)[C@H](CCC(N)=O)NC(=O)[C@H](CCC(N)=O)NC(=O)[C@H](Cc2c[nH]cn2)NC(=O)[C@@H](NC(=O)[C@H](CCCCN)NC(=O)[C@H](CC(=O)O)NC(=O)[C@H](CCSC)NC(=O)[C@H](C)NC(=O)[C@@H](NC(=O)[C@H](CO)NC(=O)[C@H](Cc2ccc(O)cc2)NC(=O)[C@H](CC(=O)O)NC(=O)[C@H](CO)NC(=O)C2(NC(=O)[C@H](Cc3ccccc3)NC(C)=O)CCCCC2)[C@@H](C)CC)[C@@H](C)CC)C(C)C)C(=O)N[C@@H](CCCCN)C(=O)N[C@@H](CCCCN)C(=O)N[C@@H](CC(N)=O)C(=O)N[C@@H](CC(=O)O)C(=O)N[C@@H](Cc2c[nH]c3ccccc23)C(=O)N[C@@H](CCCCN)C(=O)N[C@@H](Cc2c[nH]cn2)C(=O)N[C@@H](CC(N)=O)C(=O)N[C@H](C(=O)N[C@H](C(=O)N[C@@H](CCC(N)=O)C(=O)O)[C@@H](C)O)[C@@H](C)CC)C1=O (some centres unmarked) [Example 30, [Ac-Phe^6, A6c^7, Cys(Psu)^31]hGIP(6-42)-OH] (Ac-F[Ac6c]SDYSIAMDKIHQQDFVNWLLAQKC(X1)KKNDWKHNITQ-OH) | – | – | 7.2 | 7.6
4 | CCCC[C@H](NC(=O)[C@H](C)NC(=O)[C@@H](NC(=O)[C@H](CO)NC(=O)[C@H](Cc1ccc(O)cc1)NC(=O)[C@H](CC(=O)O)NC(=O)[C@H](CO)NC(=O)C1(NC(=O)[C@@H](N)Cc2ccccc2)CCCCC1)[C@@H](C)CC)C(=O)N[C@@H](CC(=O)O)C(=O)N[C@@H](CCCCN)C(=O)N[C@H](C(=O)N[C@@H](Cc1c[nH]cn1)C(=O)N[C@@H](CCC(N)=O)C(=O)N[C@@H](CCC(N)=O)C(=O)N[C@@H](CC(=O)O)C(=O)N[C@@H](Cc1ccccc1)C(=O)N[C@H](C(=O)N[C@@H](CC(N)=O)C(=O)N[C@@H](Cc1c[nH]c2ccccc12)C(=O)N[C@@H](CC(C)C)C(=O)N[C@@H](CC(C)C)C(=O)N[C@@H](C)C(=O)N[C@@H](CCC(N)=O)C(=O)N[C@@H](CCCCN)C(N)=O)C(C)C)[C@@H](C)CC [Example 36, (A6c^7, Nle^14)hGIP(6-30)-NH2] (HELM PEPTIDE1{F.[O=C(C1(N[*:1])CCCCC1)[*:2]].S.D.Y.S.I.A.[Nle].D.K.I.H.Q.Q.D.F.V.N.W.L.L.A.Q.K.[am]}$$$$V2.0) | – | – | 21.9 | 21.6
5 | CCCCCCN1C(=O)CC(SC[C@H](NC(=O)[C@H](CCCCN)NC(=O)[C@H](CCC(N)=O)NC(=O)[C@H](C)NC(=O)[C@H](CC(C)C)NC(=O)[C@H](CC(C)C)NC(=O)[C@H](Cc2c[nH]c3ccccc23)NC(=O)[C@H](CC(N)=O)NC(=O)[C@@H](NC(=O)[C@H](Cc2ccccc2)NC(=O)[C@H](CC(=O)O)NC(=O)[C@H](CCC(N)=O)NC(=O)[C@H](CCC(N)=O)NC(=O)[C@H](Cc2c[nH]cn2)NC(=O)[C@@H](NC(=O)[C@H](CCCCN)NC(=O)[C@H](CC(=O)O)NC(=O)[C@H](CCSC)NC(=O)[C@H](C)NC(=O)[C@@H](NC(=O)[C@H](CO)NC(=O)[C@H](Cc2ccc(O)cc2)NC(=O)[C@H](CC(=O)O)NC(=O)[C@H](CO)NC(=O)C2(N)CCCCC2)[C@@H](C)CC)[C@@H](C)CC)C(C)C)C(=O)N[C@@H](CCCCN)C(=O)N[C@@H](CCCCN)C(=O)N[C@@H](CC(N)=O)C(=O)N[C@@H](CC(=O)O)C(=O)N[C@@H](Cc2c[nH]c3ccccc23)C(=O)N[C@@H](CCCCN)C(=O)N[C@@H](Cc2c[nH]cn2)C(=O)N[C@@H](CC(N)=O)C(=O)N[C@H](C(=O)N[C@H](C(=O)N[C@@H](CCC(N)=O)C(=O)O)[C@@H](C)O)[C@@H](C)CC)C1=O (some centres unmarked) [Example 23, [A6c^7, Cys(Hsu)^31]hGIP(7-42)-OH] (H-[Ac6c]SDYSIAMDKIHQQDFVNWLLAQKC(X2)KKNDWKHNITQ-OH) | – | – | 11.7 | 5.3
6 | CCCN1C(=O)CC(SC[C@H](NC(=O)[C@H](CCCCN)NC(=O)[C@H](CCC(N)=O)NC(=O)[C@H](C)NC(=O)[C@H](CC(C)C)NC(=O)[C@H](CC(C)C)NC(=O)[C@H](Cc2c[nH]c3ccccc23)NC(=O)[C@H](CC(N)=O)NC(=O)[C@@H](NC(=O)[C@H](Cc2ccccc2)NC(=O)[C@H](CC(=O)O)NC(=O)[C@H](CCC(N)=O)NC(=O)[C@H](CCC(N)=O)NC(=O)[C@H](Cc2c[nH]cn2)NC(=O)[C@@H](NC(=O)[C@H](CCCCN)NC(=O)[C@H](CC(=O)O)NC(=O)[C@H](CCSC)NC(=O)[C@H](C)NC(=O)[C@@H](NC(=O)[C@H](CO)NC(=O)[C@H](Cc2ccc(O)cc2)NC(=O)[C@H](CC(=O)O)NC(=O)[C@H](CO)NC(=O)C2(NC(=O)[C@@H](N)Cc3ccccc3)CCCCC2)[C@@H](C)CC)[C@@H](C)CC)C(C)C)C(=O)N[C@@H](CCCCN)C(=O)N[C@@H](CCCCN)C(=O)N[C@@H](CC(N)=O)C(=O)N[C@@H](CC(=O)O)C(=O)N[C@@H](Cc2c[nH]c3ccccc23)C(=O)N[C@@H](CCCCN)C(=O)N[C@@H](Cc2c[nH]cn2)C(=O)N[C@@H](CC(N)=O)C(=O)N[C@H](C(=O)N[C@H](C(=O)N[C@@H](CCC(N)=O)C(=O)O)[C@@H](C)O)[C@@H](C)CC)C1=O (some centres unmarked) [Example 31, [A6c^7, Cys(Psu)^31]hGIP(6-42)-OH] (H-F[Ac6c]SDYSIAMDKIHQQDFVNWLLAQKC(X1)KKNDWKHNITQ-OH) | – | – | 4.4 | 5.1
7 | CC[C@H](C)[C@H](NC(=O)[C@H](CO)NC(=O)[C@H](Cc1ccc(O)cc1)NC(=O)[C@H](CC(=O)O)NC(=O)[C@H](CO)NC(=O)[C@@H](NC(=O)[C@H](Cc1ccccc1)NC(=O)[C@@H](NC(=O)CNC(=O)[C@H](CCC(=O)O)NC(=O)CCc1ccc(O)cc1)[C@@H](C)O)[C@@H](C)CC)C(=O)N[C@@H](C)C(=O)NC1(C(=O)N[C@@H](CC(=O)O)C(=O)N[C@@H](CCCCN)C(=O)N[C@H](C(=O)N[C@@H](Cc2c[nH]cn2)C(=O)N[C@@H](CCC(N)=O)C(=O)N[C@@H](CCC(N)=O)C(=O)N[C@@H](CC(=O)O)C(=O)N[C@@H](Cc2ccccc2)C(=O)N[C@H](C(=O)N[C@@H](CC(N)=O)C(=O)N[C@@H](Cc2c[nH]c3ccccc23)C(=O)N[C@@H](CC(C)C)C(=O)N[C@@H](CC(C)C)C(=O)N[C@@H](C)C(=O)N[C@@H](CCC(N)=O)C(=O)N[C@@H](CCCCN)C(=O)NCC(=O)N[C@@H](CCCCN)C(=O)N[C@@H](CCCCN)C(=O)N[C@@H](CC(N)=O)C(=O)N[C@@H](CC(=O)O)C(=O)N[C@@H](Cc2c[nH]c3ccccc23)C(=O)N[C@@H](CCCCN)C(=O)N[C@@H](Cc2c[nH]cn2)C(=O)N[C@@H](CC(N)=O)C(=O)N[C@H](C(=O)N[C@H](C(=O)N[C@@H](CCC(N)=O)C(=O)O)[C@@H](C)O)[C@@H](C)CC)C(C)C)[C@@H](C)CC)CCCCC1 [Example 45, (4Hppa^2, A6c^14)hGIP(2-42)-OH] | – | – | 64.2 | 4.3
